According to patent publication US20130267544A1, “Use of LP-PLA2 Inhibitors in the Treatment and Prevention of Eye Diseases” (priority 2010, published 2013):
Read-outs that look alike come from different tables or passages of the source.

Columns and labels:
[1] = tested on: STZ-induced diabetic SD rats
Method: (§1) Male SD rats, 6 weeks of age and weighing 180-200 g, were used in this study; the rats had free access to food and water and were maintained in cages in an environmentally controlled room with a 12 hour light-dark cycle. Diabetes was induced by following dosing of animals with streptozotocin (50 mg/kg/day dosed i.p. for each of the first 3 days of the protocol) in 10 mM sodium citrate-buffer pH 4.6. […] Animals which maintained an elevated blood glucose level of over 9 mM were deemed diabetic.
The retinal images were scanned by a commercially available Fourier-domain OCT (RTVue-100; version 2.1; Optovue, Inc., California, USA). Super-luminescent diode light source with a central wavelength of 840 nm and a full bandwidth of 50 nm was adapted to the OCT. The retinal thickness was accessed by the automatic software of RTVue scanner with manual adjusting. The retinal thickness was defined from layer of retinal pigment eitheluim (RPE) to retinal ganglion cell layer (GCL).
Two separate studies were conducted. Retinal images were taken on experimental day 4, 10, 13, 17, 22, 28 and 31 for the second study and day 0, 4, 7, 10, 14 and 18 for the first study. Animals were anesthetized by inhalation of 5% isoflourane and pupils were diluted with 1% tropicamide and 1% phenylephrine. Prior to OCT analysis animals were fixed on a support frame and the eye to be imaged positioned to align with the center of the scan beam perpendicular to the fundus. […] After imaging, the animals were recovered and returned to cages. Retinal thickness from six time points of OCT measurement were analyzed by repeated measures analysis of variance (ANOVA) using Prism software. […] All data were expressed as mean value±SEM.

[2] = target: Lp-PLA2 (Rattus norvegicus, UniProt A6JJ35); details: hyperglycemic BN rats, 10 mg/kg i.p. QD
Method: as §1, with “Brown Norway (BN)” for “Male SD”, “(65” for “(50”

[3] = tested on: STZ-induced diabetic Brown Norway rats (blood-retinal barrier); details: BN rats, 2 week study, 10 mg/kg i.p. QD; not statistically robust
Method: as §1, with “Brown Norway (BN)” for “Male SD”, “(65” for “(50”

[4] = tested on: STZ-induced diabetic Brown Norway rats (blood-retinal barrier); details: hyperglycaemic BN rats
Method: as §1, with “Brown Norway (BN)” for “Male SD”, “(65” for “(50”
Eyes were enucleated, hemisected along the ora serrata, and the vitreous humor removed. Eyecups were immersion fixed in 4% (w/v) paraformaldehyde for 30 min, washed in PBS, and the retinas detached. Fixed retinas were cryoprotected, embedded in Tissue-Tek OCT compound snap frozen in liquid nitrogen-cooled isopentane, and 12-μm cryosections prepared. Sections was immunostained with antibodies specific for rat immunoglobulin G (IgG) in order to locate any nonvascular IgG and isolectin B4 to determine the location of retinal blood vessels in the retinal sections and viewed on a confocal microscope. Fluorescence was visualized by using a Nikon TE-2000 C1 confocal system (Nikon Ltd, Kingston upon Thames, UK). In some cases retinal blood vessels were highlighted using propridium iodide staining

Lp-PLA2, sequence (A6JJ35 22-440): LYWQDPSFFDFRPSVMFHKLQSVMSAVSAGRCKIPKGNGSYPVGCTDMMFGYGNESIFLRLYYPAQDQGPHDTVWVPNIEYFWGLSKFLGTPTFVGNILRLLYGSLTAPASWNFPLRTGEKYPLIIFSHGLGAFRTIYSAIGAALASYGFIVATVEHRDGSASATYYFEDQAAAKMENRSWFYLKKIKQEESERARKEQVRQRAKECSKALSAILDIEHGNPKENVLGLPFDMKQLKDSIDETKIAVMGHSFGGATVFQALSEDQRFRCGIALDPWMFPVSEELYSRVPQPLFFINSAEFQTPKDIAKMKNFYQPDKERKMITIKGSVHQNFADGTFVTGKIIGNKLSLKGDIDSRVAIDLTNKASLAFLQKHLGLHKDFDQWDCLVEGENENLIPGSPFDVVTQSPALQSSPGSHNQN

CN(C)CCN(Cc1ccc(-c2ccc(C(F)(F)F)cc2)cc1)C(=O)Cn1cc(Cc2cnn(C)c2)c(=O)nc1SCc1ccc(F)cc1 [Lp-PLA2 inhibitor '495]
STZ-induced retinal thinning (neuroretinal thickness by OCT) ([1]; first study, 10 mg/kg/day i.p. from day 8, assessed at 10 and 18 days, p<0.05): partially but significantly inhibited | incidence of sub-retinal fluid accumulation by OCT ([1]; hyperglycaemic SD rats, 10 mg/kg/day, day 14): no animals to have overt retinal fluid accumulation | STZ-induced retinal thinning (neuroretinal thickness by OCT) ([1]; second study, 10 mg/kg/d i.p. from day 4, vs vehicle-treated diabetic rats, p<0.001): significant attenuation in the development of retinal thinning | trough Lp-PLA2 inhibition ([2]; 2 weeks study): 89.7% | trough Lp-PLA2 inhibition ([2]; 4 week study): 93.2% | Evans blue (albumin) leakage in retinae [3]: reduced this leak to levels exhibited by the normo-glycaemic group | albumin leakage from retinal vessels (immunohistochemistry) ([4]; 10 mg/kg QD i.p., 4 weeks, listed as SB435495, 10 mg/kg): less leakage and extensive co-localization of albumin with retinal blood vessels | albumin leakage from retinal vessels (immunohistochemistry) ([4]; 20 mg/kg QD i.p., 2 weeks, 20 mg/kg): albumin is contained intravascularly and co-localised with retinal vessels | albumin leakage from retinal vessels (immunohistochemistry) ([4]; 20 mg/kg QD i.p., 2 weeks, listed as SB435495, 20 mg/kg): less leakage and extensive co-localization of albumin with retinal blood vessels
